According to ChEMBL document CHEMBL3751785, “Development and structural analysis of adenosine site binding tankyrase inhibitors” (Bioorg Med Chem Lett, 2016):

Columns and labels:
[1] = target: T1, Protein mono-ADP-ribosyltransferase PARP12 (Homo sapiens, UniProt Q9H0J9); assay: Inhibition of human ARTD12 by fluorescence analysis
T1 sequence (Q9H0J9 whole entry): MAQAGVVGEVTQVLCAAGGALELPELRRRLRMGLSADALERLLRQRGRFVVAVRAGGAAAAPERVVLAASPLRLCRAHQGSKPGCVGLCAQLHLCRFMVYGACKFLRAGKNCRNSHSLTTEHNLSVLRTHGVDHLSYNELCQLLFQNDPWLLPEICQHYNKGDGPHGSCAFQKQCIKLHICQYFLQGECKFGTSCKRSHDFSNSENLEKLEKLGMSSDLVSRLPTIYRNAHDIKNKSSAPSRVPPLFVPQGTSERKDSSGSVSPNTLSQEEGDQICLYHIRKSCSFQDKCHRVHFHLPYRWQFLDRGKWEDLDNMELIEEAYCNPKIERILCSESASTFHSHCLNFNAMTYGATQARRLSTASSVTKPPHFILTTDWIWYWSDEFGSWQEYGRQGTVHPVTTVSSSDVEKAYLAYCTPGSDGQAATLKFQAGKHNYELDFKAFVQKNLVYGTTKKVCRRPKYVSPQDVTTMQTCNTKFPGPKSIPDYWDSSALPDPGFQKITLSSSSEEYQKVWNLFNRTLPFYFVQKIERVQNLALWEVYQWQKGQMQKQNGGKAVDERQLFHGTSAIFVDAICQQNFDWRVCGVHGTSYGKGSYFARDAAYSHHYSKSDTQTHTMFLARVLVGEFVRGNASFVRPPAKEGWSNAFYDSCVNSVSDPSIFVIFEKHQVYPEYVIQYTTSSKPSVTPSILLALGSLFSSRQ

[2] = target: T2, Protein mono-ADP-ribosyltransferase PARP3 (Homo sapiens, UniProt Q9Y6F1); assay: Inhibition of human ARTD3 by fluorescence analysis
T2 sequence (Q9Y6F1 whole entry): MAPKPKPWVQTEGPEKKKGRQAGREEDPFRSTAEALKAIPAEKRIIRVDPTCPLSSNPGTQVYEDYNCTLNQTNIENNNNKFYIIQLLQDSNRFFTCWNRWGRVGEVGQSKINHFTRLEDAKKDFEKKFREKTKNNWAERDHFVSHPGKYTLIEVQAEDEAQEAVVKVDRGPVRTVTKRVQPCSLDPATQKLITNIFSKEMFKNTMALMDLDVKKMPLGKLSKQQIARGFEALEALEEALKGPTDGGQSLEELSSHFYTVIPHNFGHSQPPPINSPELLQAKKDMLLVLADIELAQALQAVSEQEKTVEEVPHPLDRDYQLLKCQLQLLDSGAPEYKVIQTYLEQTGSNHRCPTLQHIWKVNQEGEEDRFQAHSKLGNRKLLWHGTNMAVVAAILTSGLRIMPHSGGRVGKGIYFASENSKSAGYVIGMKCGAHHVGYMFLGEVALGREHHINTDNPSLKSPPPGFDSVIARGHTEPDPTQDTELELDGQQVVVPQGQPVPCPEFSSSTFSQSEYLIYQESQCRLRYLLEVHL

[3] = target: Protein mono-ADP-ribosyltransferase PARP4 (Homo sapiens, UniProt Q9UKK3); assay: Inhibition of human ARTD4 by fluorescence analysis
Sequence of Protein mono-ADP-ribosyltransferase PARP4 (Q9UKK3 whole entry): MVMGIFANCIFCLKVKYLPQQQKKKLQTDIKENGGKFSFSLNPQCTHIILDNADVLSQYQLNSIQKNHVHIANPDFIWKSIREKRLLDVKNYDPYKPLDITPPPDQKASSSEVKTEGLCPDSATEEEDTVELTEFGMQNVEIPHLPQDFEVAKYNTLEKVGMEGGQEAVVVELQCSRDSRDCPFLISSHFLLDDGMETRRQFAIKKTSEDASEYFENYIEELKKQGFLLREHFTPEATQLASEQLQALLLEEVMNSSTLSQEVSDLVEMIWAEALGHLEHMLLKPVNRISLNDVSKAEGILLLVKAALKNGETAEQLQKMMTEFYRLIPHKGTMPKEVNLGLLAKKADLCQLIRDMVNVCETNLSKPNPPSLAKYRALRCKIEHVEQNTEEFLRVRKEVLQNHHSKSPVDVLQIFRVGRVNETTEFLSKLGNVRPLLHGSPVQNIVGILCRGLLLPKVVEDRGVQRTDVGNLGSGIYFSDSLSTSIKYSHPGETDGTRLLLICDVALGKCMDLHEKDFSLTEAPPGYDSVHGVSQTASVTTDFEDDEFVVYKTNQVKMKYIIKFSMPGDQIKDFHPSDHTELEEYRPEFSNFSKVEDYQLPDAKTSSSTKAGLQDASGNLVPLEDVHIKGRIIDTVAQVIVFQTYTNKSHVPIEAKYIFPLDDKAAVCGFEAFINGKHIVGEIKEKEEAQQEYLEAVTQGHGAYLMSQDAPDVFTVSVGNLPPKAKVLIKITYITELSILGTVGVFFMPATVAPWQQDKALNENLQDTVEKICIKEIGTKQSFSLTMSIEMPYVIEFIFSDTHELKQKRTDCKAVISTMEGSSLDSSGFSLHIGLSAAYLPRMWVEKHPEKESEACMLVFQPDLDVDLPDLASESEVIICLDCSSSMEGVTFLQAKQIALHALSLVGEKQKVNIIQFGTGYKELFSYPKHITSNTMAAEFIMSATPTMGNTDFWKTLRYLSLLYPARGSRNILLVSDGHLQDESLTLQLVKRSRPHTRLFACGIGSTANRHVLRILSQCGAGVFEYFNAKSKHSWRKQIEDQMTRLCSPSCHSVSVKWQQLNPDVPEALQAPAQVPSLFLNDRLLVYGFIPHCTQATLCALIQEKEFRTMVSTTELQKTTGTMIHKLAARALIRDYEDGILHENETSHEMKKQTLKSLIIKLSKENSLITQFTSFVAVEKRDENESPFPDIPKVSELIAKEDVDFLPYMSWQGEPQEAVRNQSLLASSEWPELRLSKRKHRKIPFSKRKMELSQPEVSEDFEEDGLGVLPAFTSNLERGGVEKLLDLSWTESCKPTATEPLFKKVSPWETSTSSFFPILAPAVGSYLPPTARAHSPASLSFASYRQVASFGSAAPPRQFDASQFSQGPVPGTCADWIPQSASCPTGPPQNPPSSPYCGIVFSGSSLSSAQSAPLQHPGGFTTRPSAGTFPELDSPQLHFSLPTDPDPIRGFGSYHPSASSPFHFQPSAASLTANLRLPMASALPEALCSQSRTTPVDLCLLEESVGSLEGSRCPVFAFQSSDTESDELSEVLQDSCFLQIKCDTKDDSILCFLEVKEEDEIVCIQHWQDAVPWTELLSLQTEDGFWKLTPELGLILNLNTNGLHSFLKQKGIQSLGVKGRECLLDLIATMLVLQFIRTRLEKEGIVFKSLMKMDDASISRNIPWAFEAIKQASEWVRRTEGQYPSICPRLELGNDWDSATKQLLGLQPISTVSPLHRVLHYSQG

[4] = target: T3, Poly [ADP-ribose] polymerase tankyrase-1 (Homo sapiens, UniProt O95271); assay: Inhibition of human TNKS1 by fluorescence analysis
T3 sequence (O95271 whole entry): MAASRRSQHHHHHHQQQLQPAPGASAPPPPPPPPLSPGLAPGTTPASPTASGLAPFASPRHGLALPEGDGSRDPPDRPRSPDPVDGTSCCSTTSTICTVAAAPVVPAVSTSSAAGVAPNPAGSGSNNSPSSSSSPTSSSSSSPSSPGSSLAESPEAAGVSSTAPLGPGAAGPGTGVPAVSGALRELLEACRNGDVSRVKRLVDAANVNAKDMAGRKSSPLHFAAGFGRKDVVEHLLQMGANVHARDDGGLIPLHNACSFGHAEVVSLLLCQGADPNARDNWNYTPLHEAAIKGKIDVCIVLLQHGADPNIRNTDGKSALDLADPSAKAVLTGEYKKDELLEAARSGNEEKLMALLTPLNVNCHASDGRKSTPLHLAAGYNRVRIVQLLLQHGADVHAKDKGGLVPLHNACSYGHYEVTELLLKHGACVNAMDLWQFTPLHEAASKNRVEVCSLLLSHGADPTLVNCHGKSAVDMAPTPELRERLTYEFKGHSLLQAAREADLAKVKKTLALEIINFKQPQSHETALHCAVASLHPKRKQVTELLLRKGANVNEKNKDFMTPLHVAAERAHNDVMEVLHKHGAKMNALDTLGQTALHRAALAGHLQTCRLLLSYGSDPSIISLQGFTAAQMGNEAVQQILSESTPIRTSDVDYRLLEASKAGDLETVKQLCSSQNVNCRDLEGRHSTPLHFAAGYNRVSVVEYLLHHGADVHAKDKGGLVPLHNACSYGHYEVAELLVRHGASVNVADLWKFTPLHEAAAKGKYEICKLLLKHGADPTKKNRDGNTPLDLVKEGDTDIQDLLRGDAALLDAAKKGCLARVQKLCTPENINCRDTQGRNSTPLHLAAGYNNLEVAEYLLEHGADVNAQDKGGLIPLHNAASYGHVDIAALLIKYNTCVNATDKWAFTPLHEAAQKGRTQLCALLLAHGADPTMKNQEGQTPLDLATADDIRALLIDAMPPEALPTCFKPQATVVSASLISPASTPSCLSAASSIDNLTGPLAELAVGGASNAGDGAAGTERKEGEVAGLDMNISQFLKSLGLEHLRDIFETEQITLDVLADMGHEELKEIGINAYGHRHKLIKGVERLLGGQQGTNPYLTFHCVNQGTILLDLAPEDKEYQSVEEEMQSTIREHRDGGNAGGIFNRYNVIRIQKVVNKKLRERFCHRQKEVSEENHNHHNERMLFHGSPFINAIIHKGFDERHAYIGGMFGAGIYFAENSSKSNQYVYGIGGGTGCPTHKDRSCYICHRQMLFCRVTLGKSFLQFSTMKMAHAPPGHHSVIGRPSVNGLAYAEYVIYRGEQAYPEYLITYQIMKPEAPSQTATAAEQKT

IC50 [1]: > 10 µM | IC50 [2]: > 100 µM | IC50 [3]: > 100 µM | IC50 [4]: 570 nM
Structure (SMILES): COc1ccc(C2(CNC(=O)c3ccc(NC(=O)c4ccco4)cc3Cl)CCOCC2)cc1
